Marks after values point to notes of the source that are not given here.
How the values were obtained:
Type in all cases: in vivo, human
[1] = Single ascending dose (SAD) study in healthy volunteers: safety and tolerability (TEAEs)
Description: To evaluate the safety and tolerability of single ascending doses of Compound I, 48 healthy volunteers (42 in the fasted state and 6 in the fed state) aged 18 to 55 years old were administered single ascending doses (50 mg to 2200 mg) of Compound I, while 16 healthy volunteers (14 in the fasted state and 2 in the fed state) aged 18 to 55 years old were administered placebo in a double blind, randomized, sequential manner.
Primary endpoints were safety and tolerability; key secondary endpoints included PK and effect of food (high-fat meal).
The few that were considered drug-related resolved with little to no intervention.

[2] = Single 100 mg dose PK in SCD subjects; conditions: for AUC(0-t) / Cmax / half-life / Tmax: human; for AUC(0-t) / Cmax: 100 mg; for Tmax: median
Description: The PK profile of a single 100 mg dose in whole blood and plasma was evaluated using standard noncompartmental analysis. The preliminary PK parameter estimates of Compound I in whole blood from SCD subjects differed from healthy subjects in terms of elimination t½, AUC, Tmax, and blood to plasma ratio. In brief, the elimination t½ and Tmax were nearly 3× faster or occurred earlier, respectively, in SCD than in healthy subjects, and the blood to plasma ratio was about 30% of the values in healthy subjects (most likely due to the fewer RBCs compared to healthy subjects). For the plasma compartment, the differences between the 2 populations were most notable in terms of elimination t1/2, which again was about 2.5 times faster in SCD.

[3] = SCD cohort PK after repeated dosing; conditions: for Cmax: 150 mg
Description: After a washout period of at least 56 days (so that elimination PK of Compound I could be assessed), the patients were administered a loading dose of 300 mg per day of Compound I for one day followed by 200 mg per day of Compound I for one day, and then were administered a maintenance dose of 50 mg per day of Compound I for five weeks (“MAD-1 Cohort”). The same patients then received another loading dose of 500 mg per day of Compound I for one day followed by 400 mg per day of Compound I for one day, and then were administered another maintenance dose of 100 mg per day of Compound I for three weeks (“MAD-2 Cohort”). The total treatment period of the MAD-1 Cohort and MAD-2 Cohort was 8 weeks.
Following the conclusion of the MAD-2 study and a washout period of about 8 months, the selected patients (n=4) were administered a loading dose of 300 mg BID for 4 days, followed thereafter by a maintenance dose of 150 mg QD (MAD-3 Cohort).
The concentrations of Compound I in whole blood and plasma at week 6 in patients who participated in the MAD-3 cohort are shown in Table 19.

[4] = HV single 50 mg, blinded, n=8 incl. placebo
[5] = HV single 50 mg, unblinded, n=6
[6] = HV single 100 mg, blinded, n=8 incl. placebo
[7] = HV single 100 mg, unblinded, n=6
[8] = HV single 200 mg fed (high-fat meal), blinded, n=8 incl. placebo
[9] = HV single 200 mg fed (high-fat meal), unblinded, n=6
[10] = HV single 200 mg, blinded, n=8 incl. placebo
[11] = HV single 200 mg, unblinded, n=6
[12] = HV single 400 mg, blinded, n=8 incl. placebo
[13] = HV single 400 mg, unblinded, n=6
[14] = HV single 800 mg, blinded, n=8 incl. placebo
[15] = HV single 800 mg, unblinded, n=6
[16] = HV single 1400 mg, blinded, n=8 incl. placebo
[17] = HV single 1400 mg, unblinded, n=6
[18] = HV single 2200 mg, blinded, n=8 incl. placebo
[19] = HV single 2200 mg, unblinded, n=6
[20] = plasma, SCD subjects n=6, single 100 mg, geometric mean
[21] = whole blood, SCD single 100 mg, mean
[22] = whole blood, SCD subjects n=6, single 100 mg, blood, geometric mean

O=Cc1c(O)cccc1OC[C@@H]1COCCN1C(=O)c1cccnc1CCO [Compound I, (S)-2-hydroxy-6-((4-(2-(2-hydroxyethyl)nicotinoyl)morpholin-3-yl)methoxy)benzaldehyde]
adverse events indicative of tissue hypoxia ([1]; HV SAD): no adverse events indicative of tissue hypoxia
grade of adverse events (CTCAE v5.0) ([1]; HV SAD, blinded study): mostly grade 1 or 2
Number of SAEs [1, 4]: 0
Number of TEAEs [1, 4]: 14
Number of TEAEs grade ≥ 3 [1, 4]: 0
Number of TEAEs leading to study drug discontinuation [1, 4]: 0
Number of drug-related TEAEs [1, 4]: 2
Number of SAEs [1, 5]: 0
Number of TEAEs [1, 5]: 11
Number of TEAEs grade ≥ 3 [1, 5]: 0
Number of TEAEs leading to study drug discontinuation [1, 5]: 0
Number of drug-related TEAEs [1, 5]: 1
Number of SAEs [1, 6]: 0
Number of TEAEs [1, 6]: 13
Number of TEAEs grade ≥ 3 [1, 6]: 0
Number of TEAEs leading to study drug discontinuation [1, 6]: 0
Number of drug-related TEAEs [1, 6]: 1
Number of SAEs [1, 7]: 0
Number of TEAEs [1, 7]: 10
Number of TEAEs grade ≥ 3 [1, 7]: 0
Number of TEAEs leading to study drug discontinuation [1, 7]: 0
Number of drug-related TEAEs [1, 7]: 1
Number of SAEs [1, 8]: 0
Number of TEAEs [1, 8]: 8
Number of TEAEs grade ≥ 3 [1, 8]: 1
Number of TEAEs leading to study drug discontinuation [1, 8]: 0
Number of drug-related TEAEs [1, 8]: 0
Number of SAEs [1, 9]: 0
Number of TEAEs [1, 9]: 7
Number of TEAEs grade ≥ 3 [1, 9]: 1
Number of TEAEs leading to study drug discontinuation [1, 9]: 0
Number of drug-related TEAEs [1, 9]: 0
Number of SAEs [1, 10]: 0
Number of TEAEs [1, 10]: 16
Number of TEAEs grade ≥ 3 [1, 10]: 0
Number of TEAEs leading to study drug discontinuation [1, 10]: 0
Number of drug-related TEAEs [1, 10]: 0
Number of SAEs [1, 11]: 0
Number of TEAEs [1, 11]: 15
Number of TEAEs grade ≥ 3 [1, 11]: 0
Number of TEAEs leading to study drug discontinuation [1, 11]: 0
Number of drug-related TEAEs [1, 11]: 0
Number of TEAEs [1, 12]: 23^
Number of TEAEs grade ≥ 3 [1, 12]: 1^
Number of TEAEs leading to study drug discontinuation [1, 12]: 0^
Number of drug-related TEAEs [1, 12]: 1^
Number of SAEs ([1]; HV single 400 mg, blinded, n=8 incl. placebo, SAE was a traumatic brain injury, not drug related): 1^c
Number of TEAEs [1, 13]: 16^
Number of TEAEs grade ≥ 3 [1, 13]: 1^
Number of TEAEs leading to study drug discontinuation [1, 13]: 0^
Number of drug-related TEAEs [1, 13]: 1^
Number of SAEs ([1]; HV single 400 mg, unblinded, n=6, SAE was a traumatic brain injury, not drug related): 1^c
Number of SAEs [1, 14]: 0
Number of TEAEs [1, 14]: 14
Number of TEAEs grade ≥ 3 [1, 14]: 0
Number of TEAEs leading to study drug discontinuation [1, 14]: 0
Number of drug-related TEAEs [1, 14]: 3
Number of SAEs [1, 15]: 0
Number of TEAEs [1, 15]: 10
Number of TEAEs grade ≥ 3 [1, 15]: 0
Number of TEAEs leading to study drug discontinuation [1, 15]: 0
Number of drug-related TEAEs [1, 15]: 3
Number of SAEs [1, 16]: 0
Number of TEAEs [1, 16]: 29
Number of TEAEs grade ≥ 3 [1, 16]: 0
Number of TEAEs leading to study drug discontinuation [1, 16]: 0
Number of drug-related TEAEs [1, 16]: 4
Number of SAEs [1, 17]: 0
Number of TEAEs [1, 17]: 26
Number of TEAEs grade ≥ 3 [1, 17]: 0
Number of TEAEs leading to study drug discontinuation [1, 17]: 0
Number of drug-related TEAEs [1, 17]: 4
Number of SAEs [1, 18]: 0
Number of TEAEs [1, 18]: 17
Number of TEAEs grade ≥ 3 [1, 18]: 0
Number of TEAEs leading to study drug discontinuation [1, 18]: 0
Number of drug-related TEAEs [1, 18]: 4
Number of SAEs [1, 19]: 0
Number of TEAEs [1, 19]: 18
Number of TEAEs grade ≥ 3 [1, 19]: 0
Number of TEAEs leading to study drug discontinuation [1, 19]: 0
Number of drug-related TEAEs [1, 19]: 4
B:P ratio (mean AUC0-t blood:mean AUC0-t plasma) ([2]; SCD single 100 mg): 69.3
B:P ratio AUC0-inf ([2]; SCD subjects n=6, single 100 mg): 69.3
t½ ([2]; SCD subjects n=6, single 100 mg, blood, geometric mean): 235 h
AUC(0-t) [2, 20]: 67.2 µg·h/mL
Cmax [2, 20]: 1010 ng/mL
AUC(0-t) [2, 21]: 4690 µg·h/mL
Cmax [2, 21]: 16700 ng/mL
AUC(0-t) [2, 22]: 4540 µg·h/mL
Cmax [2, 22]: 16200 ng/mL
half-life ([2]; SCD single 100 mg, whole blood, mean, read-out: t1/2 (converted)): 235 h
Tmax ([2]; SCD single 100 mg, whole blood): 8 h
half-life ([2]; SCD subjects n=6, single 100 mg, plasma, geometric mean, read-out: t½ (converted)): 252 h
Tmax ([2]; SCD subjects n=6, single 100 mg, plasma): 1.5 h
blood to plasma ratio in SCD as share of the values in healthy subjects ([2]; single 100 mg): about 30%
elimination t1/2 in plasma, times faster in SCD ([2]; single 100 mg, plasma): about 2.5 times
Tmax in whole blood, times earlier in SCD than in healthy subjects ([2]; single 100 mg, whole blood): ~3 ×
elimination t½ in whole blood, times faster in SCD than in healthy subjects ([2]; single 100 mg, whole blood): ~3 ×
time to steady-state concentrations with model-selected first doses ([3]; SCD, loading doses followed by 50 mg and 100 mg second doses (FIG. 15)): ≤ 1 week
half-life ([3]; human, in vivo, SCD, after the last dose (MAD-2), assessed over about 15 weeks, read-out: elimination t1/2 (converted)): ~240 h
Cmax ([3]; human, plasma, MAD-3 (150 mg QD) week 6, SCD patient 0001, read-out: Plasma (Cmax) Concentration): 6980 ng/mL
Cmax ([3]; human, plasma, MAD-3 (150 mg QD) week 6, SCD patient 0003 (did not adhere to regimen), read-out: Plasma (Cmax) Concentration): 1610 ng/mL
Cmax ([3]; human, plasma, MAD-3 (150 mg QD) week 6, SCD patient 0004, read-out: Plasma (Cmax) Concentration): 3830 ng/mL
Cmax ([3]; human, plasma, MAD-3 (150 mg QD) week 6, SCD patient 0005, read-out: Plasma (Cmax) Concentration): 7610 ng/mL
Cmax ([3]; human, whole blood, MAD-3 (150 mg QD) week 6, SCD patient 0001, read-out: Whole Blood (Cmax) Concentration): 322000 ng/mL
Cmax ([3]; human, whole blood, MAD-3 (150 mg QD) week 6, SCD patient 0003 (did not adhere to regimen), read-out: Whole Blood (Cmax) Concentration): 36700 ng/mL
Cmax ([3]; human, whole blood, MAD-3 (150 mg QD) week 6, SCD patient 0004, read-out: Whole Blood (Cmax) Concentration): 259000 ng/mL
Cmax ([3]; human, whole blood, MAD-3 (150 mg QD) week 6, SCD patient 0005, read-out: Whole Blood (Cmax) Concentration): 308000 ng/mL

Reference: US20250041312A1, “METHODS OF ADMINISTERING A MODULATOR OF HEMOGLOBIN” (Global Blood Therapeutics, Inc., priority 2021, published 2025)
